Reference: US20260116902A1, “NOVEL COMPOUND AS FUNCTIONAL ANTAGONIST FOR S1PR1 AND S1PR4” (NEXTGEN BIOSCIENCE CO., LTD., priority 2024, published 2026)
pEC50: −log10 of the molar value.

Biological target: T1, S1PR1 (Homo sapiens, UniProt P21453)
T1 construct: host or cells: CHO-K1 (PathHunter eXpress β-Arrestin GPCR cells)
Experiment: β-arrestin recruitment assay (PathHunter CHO-K1), S1PR1
Assay type: cell-based
Conditions: agonism
Experimental: To this end, each of the cell lines in which S1PR1, S1PR2, S1PR3, and S1PR4 are overexpressed (PathHunter® CHO-K1 eXpress β-Arrestin GPCR cells; DiscoverX, Fremont, USA) was seeded in a 384-well plate at 5000 cells/well and cultured using an AssayComplete™ Cell Culture Kit-107 (DiscoverX, Fremont, USA). […] A PathHunter detection reagent cocktail (DiscoverX, Fremont, USA) was added in accordance with the manufacturer's instructions and incubated for 1 hour, followed by measuring a chemiluminescent signal (luminescence reader, 0.1 to 1 second/well).

T1 sequence (P21453 whole entry): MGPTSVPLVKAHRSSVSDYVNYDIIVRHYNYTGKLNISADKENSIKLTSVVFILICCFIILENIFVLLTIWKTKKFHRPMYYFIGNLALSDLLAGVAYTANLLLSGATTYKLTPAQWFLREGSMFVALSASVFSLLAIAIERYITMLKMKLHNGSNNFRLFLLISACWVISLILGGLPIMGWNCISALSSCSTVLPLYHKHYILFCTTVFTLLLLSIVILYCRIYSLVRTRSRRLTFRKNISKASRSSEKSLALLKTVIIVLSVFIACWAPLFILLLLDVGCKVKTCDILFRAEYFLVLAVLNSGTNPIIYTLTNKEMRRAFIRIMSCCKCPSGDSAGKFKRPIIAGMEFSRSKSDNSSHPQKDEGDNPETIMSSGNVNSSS

SMILES: CCCCCCCCCCCCC/C=C/[C@@H](O)[C@@H](N)COP(=O)(O)O [Compound S1P, sphingosine-1-phosphate]
- pEC50: 7.79
